# Reference: PMC9555310, “Novel inhibitors and activity-based probes targeting serine proteases” (Frontiers in Chemistry, 2022)
# Target: T1, thrombin (Homo sapiens, UniProt P00734)
# T1 construct: apparent molecular mass of 31 kDa, corresponding to the heavy (catalytic) chain of the protease; purchased R&D Systems
# Test: Activity-based profiling of thrombin (SDS-PAGE, streptavidin-HRP western blot)
# Assay type: binding
# Conditions: pre-treatment 30 min, 37°C
# Protocol: Samples of recombinant protease (trypsin, plasmin, thrombin, chymotrypsin, or HNE, as indicated in the relevant figure legends) were treated with each of the newly synthesized compounds at a concentration of 50 μM, for 30 min, at 37°C. A control sample (no ABP) was prepared by treating the recombinant protease with solvent vehicle (DMF) only, used to prepare the stock solution of each ABP. Samples were also pre-treated (±90°C for 30 min) before being incubated with each putative ABP. With trypsin and thrombin, further samples were prepared where Z-Arg^P-(OPh)2 or NAP559, respectively, was added 30 min prior to the addition of the ABP under examination. All treated samples were then denatured with SDS containing reducing treatment buffer (10 min at 95°C), followed by resolution by SDS-PAGE and subjected to Western blotting. Resolved proteins were then transferred onto the nitrocellulose membrane and labeled with streptavidin-HRP. The ABP–protease complex was then visualized following treatment with Luminata Forte HRP substrate.
# FIGURE 8 Activity Based Profiling of Trypsin-like serine proteases. (A) trypsin was treated (±) with NAP830, for 30 min, at 37°C (± pretreatment with Z-Arg^P-(OPh)2). (B) thrombin (1 […]) was pre-treated with various concentrations of NAP559 (30 min, at 37°C) followed by treatment (±) with NAP858 for 30 min, at 37°C. (C) Plasmin was treated in turn with QUBTL1, NAP962 and NAP830, (± pre-heat inactivation at 95°C, for 10 min) for 30 min, at 37°C. […]
# Following transfer, the extra protein binding sites on the membrane were blocked by addition of 3% (w/v) BSA in TBST (20 mM Tris, 137 mM NaCl, 1% (v/v) Tween 20, pH 7.6) and agitated gently at room temperature for 30 minutes. The biotin-labelled proteases were then detected by addition of Streptavidin-HRP (Vector Laboratories) in 3% (w/v) BSA in TBST at a concentration of 1:20000, for 1 hour at room temperature. […]
compound,measurement,setting,value
"N=C(N)NCCCN(CC(=O)N1CCC[C@H]1C(=O)N(CC(N)=O)Cc1ccccc1)C(=O)ON1C(=O)CCC1=O [NAP559, Succinimidoyl-CO-NArg-D-Pro-NPhe-NH2]",effect of pre-treatment of thrombin on 31 kDa band disclosed by NAP858,1 μM,slight but a discernible diminution in the intensity of the band
same,effect of pre-treatment of thrombin on 31 kDa band disclosed by NAP858,10 and 50 μM,almost completely extinguished
